These results are taken from patent publication US8329686B2, “Isatin analogues and uses therefor” (Washington University, priority 2006, dated 2012).

Like-named read-outs stand apart in the source and are kept apart here. A value given as a limit tells only on which side of the number the result lay.

Holding throughout (format): biochemical
One test concerns the target T1, caspase-3 (Homo sapiens, UniProt P42574).
T1 construct: purchased Sigma-Aldrich (St. Louis, Mo.)
T1 sequence (P42574 29-175 limits assumed): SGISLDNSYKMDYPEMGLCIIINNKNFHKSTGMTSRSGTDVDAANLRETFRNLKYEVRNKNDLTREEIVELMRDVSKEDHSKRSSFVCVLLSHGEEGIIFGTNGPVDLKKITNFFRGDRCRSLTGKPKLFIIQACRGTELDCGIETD
T1 sequence (P42574 176-277 limits assumed): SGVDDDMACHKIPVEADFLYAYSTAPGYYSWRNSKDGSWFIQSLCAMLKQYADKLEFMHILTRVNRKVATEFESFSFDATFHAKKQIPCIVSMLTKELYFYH
Description: Enzyme inhibition assay, caspase 3 (fluorogenic Ac-DEVD-AMC).

A further test deals with T2, caspase 7 (Homo sapiens, UniProt P55210).
T2 construct: purchased Sigma-Aldrich (St. Louis, Mo.)
T2 sequence (P55210 24-198 limits assumed): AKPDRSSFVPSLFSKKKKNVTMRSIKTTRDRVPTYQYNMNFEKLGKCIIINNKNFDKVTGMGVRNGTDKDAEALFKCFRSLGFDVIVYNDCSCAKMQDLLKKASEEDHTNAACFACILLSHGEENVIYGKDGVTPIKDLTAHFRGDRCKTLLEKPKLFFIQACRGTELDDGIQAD
T2 sequence (P55210 207-303 limits assumed): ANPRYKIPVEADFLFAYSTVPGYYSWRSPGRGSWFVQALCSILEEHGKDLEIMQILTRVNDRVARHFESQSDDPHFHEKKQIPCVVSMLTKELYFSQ
Description: Enzyme inhibition assay, caspase 7 (fluorogenic Ac-DEVD-AMC).

The next test concerns the target T3, caspase 6 (Homo sapiens, UniProt P55212).
T3 construct: purchased Sigma-Aldrich (St. Louis, Mo.)
T3 sequence (P55212 24-179 limits assumed): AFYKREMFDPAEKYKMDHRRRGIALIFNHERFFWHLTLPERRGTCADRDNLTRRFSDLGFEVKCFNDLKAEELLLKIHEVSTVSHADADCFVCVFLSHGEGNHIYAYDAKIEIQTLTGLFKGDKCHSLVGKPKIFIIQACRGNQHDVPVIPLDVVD
T3 sequence (P55212 194-293 limits assumed): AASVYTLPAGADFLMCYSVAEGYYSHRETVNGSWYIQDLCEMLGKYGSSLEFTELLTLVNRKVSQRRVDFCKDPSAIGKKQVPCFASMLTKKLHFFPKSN
The test is described as follows: Enzyme inhibition assay, caspase 6 (fluorogenic Ac-VEID-AMC).

A further test deals with T4, caspase 8 (Homo sapiens, UniProt Q14790).
T4 construct: purchased Sigma-Aldrich (St. Louis, Mo.)
T4 sequence (Q14790 217-374 limits assumed): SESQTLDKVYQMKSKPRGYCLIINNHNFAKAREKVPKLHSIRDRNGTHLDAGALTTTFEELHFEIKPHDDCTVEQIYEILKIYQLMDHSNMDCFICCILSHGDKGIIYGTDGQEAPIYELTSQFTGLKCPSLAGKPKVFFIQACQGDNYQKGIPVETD
T4 sequence (Q14790 385-479 limits assumed): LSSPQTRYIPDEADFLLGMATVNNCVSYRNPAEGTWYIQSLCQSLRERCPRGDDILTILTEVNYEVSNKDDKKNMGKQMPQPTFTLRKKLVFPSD
Description: Enzyme inhibition assay, caspase 8 (fluorogenic Ac-IETD-AMC).

Another test deals with T5, caspase 1 (Homo sapiens, UniProt P29466).
T5 construct: purchased BIOMOL Research Laboratories (Plymouth Meeting, Pa.)
T5 sequence (P29466 120-297 limits assumed): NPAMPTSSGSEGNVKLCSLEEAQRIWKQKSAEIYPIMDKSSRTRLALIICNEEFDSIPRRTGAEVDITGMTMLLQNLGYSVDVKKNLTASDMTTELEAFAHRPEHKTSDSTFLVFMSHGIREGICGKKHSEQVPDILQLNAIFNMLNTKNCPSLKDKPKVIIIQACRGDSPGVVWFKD
T5 sequence (P29466 317-404 limits assumed): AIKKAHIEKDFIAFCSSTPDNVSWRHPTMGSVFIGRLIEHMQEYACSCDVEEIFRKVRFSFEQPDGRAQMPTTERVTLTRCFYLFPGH
Description: Enzyme inhibition assay, caspase 1 (fluorogenic Ac-YVAD-AMC).

Where [1] appears, read: Table 2, read-out: IC50 (nM) Caspase 8.
Setting [2] is: Table 7, read-out: IC50 (nM) Casp-8.
[3] abbreviates: Table 2, read-out: IC50 (nM) Caspase 6.
[4] abbreviates: Table 2, read-out: IC50 (nM) Caspase 3.
Setting [5] is: Table 2, read-out: IC50 (nM) Caspase 7.
Setting [6] is: Table 2, read-out: IC50 (nM) Caspase 1.
Where [7] appears, read: Table 7, read-out: IC50 (nM) Casp-1.

Description for caspase 1: (§1) Enzyme Assays. Inhibition of recombinant human caspase-3 and other caspases by the isatin analogues was assessed using a fluorometric assay by measuring the accumulation of a fluorogenic product, 7-amino-4-methylcoumarin (7-AMC).
(§2) Enzyme Inhibition Assays. Recombinant human caspases (3, 6, 7, and 8) and their peptide-specific substrates (Ac-DEVDAMC, Ac-VEID-AMC, Ac-DEVD-AMC, and Ac-IETD-AMC, respectively) were purchased from Sigma-Aldrich (St. Louis, Mo.) with the exception of caspase 1 and its substrate (Ac-YVAD-AMC), which were obtained from BIOMOL Research Laboratories (Plymouth Meeting, Pa.). The enzymatic activity of caspases was determined by measuring the accumulation of the fluorogenic product 7-amino-4-methylcoumarin (AMC). All assays were prepared in 96-well format at a volume of 210 μL per well and consisted of 100 mM Na+ HEPES (pH 7.4), 10% sucrose, 100 mM NaCl, 0.1% CHAPS, 5 mM 2-mercaptoethanol, 2 mM EDTA, 10 μM Ac-YVAD-AMC (caspase 1); 20 mMNa^+ HEPES (pH 7.4), 10% sucrose, 100 mMNaCl, 0.1% CHAPS, 2 mM EDTA, 10 μM Ac-DEVD-AMC (caspase 3); 20 mM Na^+ HEPES (pH 7.4), 10% sucrose, 100 mM NaCl, 0.1% CHAPS, 2 mM EDTA, 10 μM Ac-VEID-AMC (caspase 6); 20 mM Na+ HEPES (pH 7.4), 100 mM NaCl, 10% sucrose, 0.1% CHAPS, 5 mM 2-mercaptoethanol, 2 mM EDTA, 10 μM Ac-DEVD-AMC (caspase 7); 20 mM Na+ HEPES (pH 7.4), 10% sucrose, 100 mM NaCl, 0.1% CHAPS, 2 mM EDTA, 10 μM Ac-IETD-AMC (caspase 8).
(§3) Recombinant caspases were first assayed to determine the optimal concentration for each experiment. Optimal concentrations were based in the linear range of the enzyme activation curves. Peptide inhibitors with known IC50 values were tested together with the compounds as a control for each caspase assay. […] Peptide and nonpeptide inhibitors were dissolved in DMSO, and a 2 serial dilution was performed prior to screening in order to obtain desired concentrations. 10 μL was added to each well containing 100 μL caspase solution and allowed to incubate on ice for 30 min. […] The final concentration of DMSO in all wells was 5% of the total volume. In caspase-1 and caspase-7 assays, 10 mM 2-mercaptoethanol was added to the substrate solution for full activation of the enzymes.
(§4) Compounds were tested in duplicate, and IC50 curves were calculated for all inhibitors assayed. Final IC50s were the average of three independent experiments.
Description for caspase 7: as §1, §2, §3, §4

For the compound `N#CC(C#N)=C1C(=O)N(Cc2ccccc2)c2ccc(S(=O)(=O)N3CCCC3COc3cccnc3)cc21` (stereo not drawn) [Compound 30a, 2-{1-Benzyl-2-oxo-5-[2-(pyridine-3-yloxymethyl)-pyrrolidine-1-sulfonyl]-1,2-dihydro-indol-3-yl-idene}-malononitrile], the half-maximal inhibitory concentration (IC50) on caspase-3 (IC50 (nM) Casp-3, Table 7) is 7.6 ± 1.1 nM; on caspase-3 (IC50 (nM) Caspase 3, Table 2) it was 7.6 ± 1.1 nM; at caspase-3 (IC50 for caspase-3) it was 7.6 nM; on caspase 7 (IC50 (nM) Casp-7, Table 7), 32.8 ± 4.9 nM; against caspase 7 (IC50 (nM) Caspase 7, Table 2), 32.8 ± 4.9 nM; against caspase 7 (IC50 for caspase-7), 32.8 nM. In addition, the IC50 is 823 ± 86 nM on caspase 6; 515 to 770 nM on caspase 6 (read-out: IC50 for caspase-6); greater than 50000 nM at caspase 8 (setting [1]); greater than 50000 nM on caspase 8 (setting [2]); greater than 50000 nM on caspase 8 (read-out: IC50 for caspase-8); 3250 nM at caspase 1. Besides, the concentration for half-maximal inhibition (IC50) was 3250 ± 450 nM at caspase 1 (IC50 (nM) Casp-1, Table 7) and 2700 to 3200 nM at caspase 1 (read-out: IC50 for caspase-1).

`N#CC(C#N)=C1C(=O)N(Cc2ccc(O)cc2)c2ccc(S(=O)(=O)N3CCCC3COc3cccnc3)cc21` (stereo not drawn) [Compound 30b, 2-{1-(4-Hydroxy-benzyl)-2-oxo-5-[2-(pyridine-3-yloxymethyl)-pyrrolidine-1-sulfonyl]-1,2-dihydro-indol-3-yl-idene}-malononitrile]: the concentration for half-maximal inhibition (IC50) against caspase-3 (IC50 (nM) Casp-3, Table 7) stood at 7.8 ± 1.9 nM; at caspase-3 (IC50 (nM) Caspase 3, Table 2), 7.8 ± 1.9 nM; on caspase-3 (IC50 for caspase-3), 7.8 nM; at caspase 7 (IC50 (nM) Casp-7, Table 7), 28.3 ± 5.4 nM; against caspase 7 (IC50 (nM) Caspase 7, Table 2), 28.3 ± 5.4 nM; on caspase 7 (IC50 for caspase-7), 28.6 nM. The half-inhibitory concentration (IC50) on caspase 6 is 650 ± 22 nM; at caspase 6 (setting [3]) it was 850 ± 21 nM; at caspase 6 (read-out: IC50 for caspase-6), 515 to 770 nM; at caspase 8 (setting [1]), greater than 50000 nM; on caspase 8 (setting [2]) it was greater than 50000 nM; on caspase 8 (read-out: IC50 for caspase-8), greater than 50000 nM. Moreover, the concentration for half-maximal inhibition (IC50) is 2720 nM against caspase 1; 2720 ± 580 nM against caspase 1 (IC50 (nM) Casp-1, Table 7); 2700 to 3200 nM at caspase 1 (read-out: IC50 for caspase-1).

As to `O=C1C(=O)N(Cc2ccccc2)c2ccc(S(=O)(=O)N3CCCC3COc3cccnc3)cc21` (stereo not drawn) [Compound 21b, 1-Benzyl-5-(2-(pyridin-3-yl-oxymethyl)-pyrrolidine-1-sulfonyl)-1H-indole-2,3-dione], the IC50 on caspase-3 (Table 6, read-out: IC50 (nM) caspase-3) was 5.2 ± 1.6 nM; at caspase 7 (Table 6, read-out: IC50 (nM) caspase-7), 14.1 ± 3.4 nM; on caspase 6 (Table 6, read-out: IC50 (nM) caspase-6), greater than 5000 nM; at caspase 8 (Table 6, read-out: IC50 (nM) caspase-8), greater than 50000 nM; on caspase 1 (Table 6, read-out: IC50 (nM) caspase-1) it was greater than 10000 nM.

As to `N#CC(C#N)=C1C(=O)Nc2ccc(S(=O)(=O)N3CC[C@H]3COc3ccccc3)cc21` [WC-II-54], the IC50 at caspase-3 (setting [4]) was 283 ± 15 nM; on caspase 7 (setting [5]), 2380 nM; at caspase 6 (setting [3]), 540 ± 44 nM; on caspase 8 (setting [1]), greater than 50000 nM; on caspase 1 (setting [6]), 2380 nM.

In the case of `O=C1C(=O)N(Cc2ccc(O)cc2)c2ccc(S(=O)(=O)N3CCCC3COc3cccnc3)cc21` (stereo not drawn) [Compound 28b, 1-(4-Hydroxy-benzyl)-5-[2-(pyridin-3-yl-oxymethyl)-pyrrolidine-1-sulfonyl]-1H-indole-2,3-dione], the half-maximal inhibitory concentration (IC50) was 3.9 ± 0.6 nM against caspase-3 (IC50 (nM) Casp-3, Table 7); 11.7 ± 1 nM on caspase 7 (IC50 (nM) Casp-7, Table 7); 9550 ± 354 nM at caspase 6; greater than 50000 nM at caspase 8 (setting [2]); greater than 15000 nM at caspase 1 (setting [7]).

For `N#CC(C#N)=C1C(=O)N(Cc2ccc(O)cc2)c2ccc(S(=O)(=O)N3CCC[C@H]3COc3ccccc3)cc21` [Compound 27c], the IC50 on caspase-3 (setting [4]) came out at 31.8 ± 6.2 nM; on caspase-3 (Table 7, read-out: IC50 (nM) Casp-3) it was 31.8 ± 6.2 nM; at caspase-3 (read-out: IC50 for caspase-3), 31.8 nM; on caspase 7 (setting [5]) it was 126 ± 19 nM; at caspase 7 (Table 7, read-out: IC50 (nM) Casp-7) it was 126 ± 19.3 nM; at caspase 7 (read-out: IC50 for caspase-7), 126 nM. For the same compound, the IC50 at caspase 6 (setting [3]) is 744 ± 48 nM; on caspase 6 (Table 7, read-out: IC50 (nM) Casp-6) it was 744 ± 48 nM; on caspase 8 (setting [1]) it was greater than 50000 nM; at caspase 8 (setting [2]), greater than 50000 nM; at caspase 1 (setting [6]), 2300 nM; on caspase 1 (setting [7]) it was 2300 ± 250 nM.

Regarding `N#CC(C#N)=C1C(=O)N(Cc2ccc(Br)cc2)c2ccc(S(=O)(=O)N3CCCC3COc3cccnc3)cc21` (stereo not drawn) [Compound 30c, 2-{1-(4-Bromo-benzyl)-2-oxo-5-[2-(pyndine-3-yloxymethyl)-pyrrolidine-1-sulfonyl]-1,2-dihydro-indol-3-yl-idene}-malononitrile], the IC50 came to 5.13 ± 0.7 nM on caspase-3 (IC50 (nM) Caspase 3, Table 2); 5.1 nM against caspase-3 (IC50 for caspase-3); 26.3 ± 0.8 nM against caspase 7 (IC50 (nM) Casp-7, Table 7); 26.3 ± 0.8 nM at caspase 7 (IC50 (nM) Caspase 7, Table 2); 26.3 nM against caspase 7 (IC50 for caspase-7); 515 ± 77 nM against caspase 6. Also, the IC50 at caspase 6 (read-out: IC50 for caspase-6) was 515 to 770 nM; at caspase 8 (setting [1]), greater than 50000 nM; on caspase 8 (setting [2]), greater than 50000 nM; at caspase 8 (read-out: IC50 for caspase-8), greater than 50000 nM; against caspase 1, 3400 nM; at caspase 1 (IC50 (nM) Casp-1, Table 7), 3400 nM. Further, the IC50 at caspase 1 (read-out: IC50 for caspase-1) fell in the range of 2700 to 3200 nM.

The IC50 is the concentration that inhibits the measured activity by half.
